Reference: patent US12460243B2, “Mass spectrometry determination of the sensitivity or resistance of bacteria to an antibiotic” (priority 2019, dated 2025)
Bridge positions count the residues as written; N and C are the ends. Square brackets hold non-standard residues; d marks the D form. Peptide text beside a SMILES is read from it. * marks the point of attachment. Heptanoyl(6-Me) = CC(C)CCCCC(=O)*; Dab = NCC[C@H](N)C(=O)O

System: Klebsiella pneumoniae
Assay: MALDI-TOF detection of released characteristic proteins, 10 min at 50° C., filtration (examples V, VI)
Assay type: cell-based
Settings: colistin 2.5 mg/ml, 10 min 50° C.
Description: The tests were carried out using the following steps: • preparing a suspension of microorganism at 2 McF in water (suspension medium, bioMérieux reference 70700), • preparing a solution of colistin sulfate (Sigma reference C4461) at a concentration of 2× in pure water (taking into account the colistin titer indicated by the manufacturer).
The proteins characteristic of the species Klebsiella pneumoniae are the DNA binding protein H-NS, the ribosomal proteins L29, L31, L34 and US9, the cold shock protein containing a CsbD domain (CsbD domain-containing protein), and the uncharacterized proteins with m/z 6290 and 8308. These proteins are characterized respectively by the peaks at 7705 (DNA binding protein H-NS), 7274 (L29), 7743 (L31), 5381 (L34), 7384 (US9), 8309 (CsbD), more or less 1000 parts per million (ppm). For their part, the hypothetical proteins are characterized by peaks at 6290 and […], more or less 1000 parts per million (ppm).
In the context of this example, the tests were carried out with the method of the present invention to determine the sensitivity or resistance of several bacteria of several strains such as in example V and comprising the following steps: • measuring the intensity of each peak observed, • finding a ratio between the sum of the intensities of the protein peaks of the microorganism and at least 1 peak of colistin. • determining the status, resistant or sensitive to colistin, as a function of the sum of the ratios obtained and of a threshold fixed for each species. • a resistant microorganism will have a low ratio and a sensitive microorganism will have a high ratio.
The K. pneumoniae strains KP S10-1, KP S10-2, KP S15-1, KP S15-2, KP R9-1, KP R9-2, KP R16-1 and KP R16-2 are also studied and the proteins characteristic of the species K. pneumoniae are analyzed. These characteristic proteins are the DNA binding protein H-NS, the ribosomal proteins L29, L31, L34 and US9, the cold shock protein containing a CsbD domain (CsbD domain-containing protein), and the uncharacterized proteins with m/z 6290 and 8308.

Compound: CC(C)CCCCC(=O)N[C@@H](CCN)C(=O)N[C@H](C(=O)N[C@@H](CCN)C(=O)N[C@H]1CCNC(=O)[C@H]([C@@H](C)O)NC(=O)[C@H](CCN)NC(=O)[C@H](CCN)NC(=O)[C@H](CC(C)C)NC(=O)[C@@H](CC(C)C)NC(=O)[C@H](CCN)NC1=O)[C@@H](C)O [colistin] ({Heptanoyl(6-Me)}-[Dab]T[Dab][Dab][Dab][dL]L[Dab][Dab]T; lactam 4-C)
- Aire sous la courbe des pics observés, 6290 (strain KP R9-1): 0.00 unité arbitraire
- Aire sous la courbe des pics observés, 8308 (strain KP R9-1): 0 unité arbitraire
- Aire sous la courbe des pics observés, CsbD domain-containing protein (strain KP R9-1): 0 unité arbitraire
- Aire sous la courbe des pics observés, DNA binding protein H-NS (strain KP R9-1): 0.00 unité arbitraire
- Aire sous la courbe des pics observés, Protéine ribosomique 50S L29 (strain KP R9-1): 0 unité arbitraire
- Aire sous la courbe des pics observés, Protéine ribosomique 50S L31 (strain KP R9-1): 0 unité arbitraire
- Aire sous la courbe des pics observés, Protéine ribosomique 50S L34 (strain KP R9-1): 0 unité arbitraire
- Aire sous la courbe des pics observés, US9 (strain KP R9-1): 0 unité arbitraire
- Ratio par protéine 6290/Colistine (strain KP R9-1): 0.00
- Ratio par protéine 8308/Colistine (strain KP R9-1): 0.00
- Ratio par protéine CsbD/Colistine (strain KP R9-1): 0.00
- Ratio par protéine DNA BP H-NS/Colistine (strain KP R9-1): 0.00
- Ratio par protéine L29/Colistine (strain KP R9-1): 0.00
- Ratio par protéine L31/Colistine (strain KP R9-1): 0.00
- Ratio par protéine L34/Colistine (strain KP R9-1): 0.00
- Ratio par protéine US9/Colistine (strain KP R9-1): 0.00
- Somme des ratios (strain KP R9-1): 0.00
- Aire sous la courbe des pics observés, 6290 (strain KP R9-2): 0.00 unité arbitraire
- Aire sous la courbe des pics observés, 8308 (strain KP R9-2): 0 unité arbitraire
- Aire sous la courbe des pics observés, CsbD domain-containing protein (strain KP R9-2): 0 unité arbitraire
- Aire sous la courbe des pics observés, DNA binding protein H-NS (strain KP R9-2): 89 unité arbitraire
- Aire sous la courbe des pics observés, Protéine ribosomique 50S L29 (strain KP R9-2): 0 unité arbitraire
- Aire sous la courbe des pics observés, Protéine ribosomique 50S L31 (strain KP R9-2): 0 unité arbitraire
- Aire sous la courbe des pics observés, Protéine ribosomique 50S L34 (strain KP R9-2): 0 unité arbitraire
- Aire sous la courbe des pics observés, US9 (strain KP R9-2): 0 unité arbitraire
- Ratio par protéine 6290/Colistine (strain KP R9-2): 0.00
- Ratio par protéine 8308/Colistine (strain KP R9-2): 0.00
- Ratio par protéine CsbD/Colistine (strain KP R9-2): 0.00
- Ratio par protéine DNA BP H-NS/Colistine (strain KP R9-2): 0.11
- Ratio par protéine L29/Colistine (strain KP R9-2): 0.00
- Ratio par protéine L31/Colistine (strain KP R9-2): 0.00
- Ratio par protéine L34/Colistine (strain KP R9-2): 0.00
- Ratio par protéine US9/Colistine (strain KP R9-2): 0.00
- Somme des ratios (strain KP R9-2): 0.11
- Aire sous la courbe des pics observés, 6290 (strain KP R16-1): 0.00 unité arbitraire
- Aire sous la courbe des pics observés, 8308 (strain KP R16-1): 0 unité arbitraire
- Aire sous la courbe des pics observés, CsbD domain-containing protein (strain KP R16-1): 0 unité arbitraire
- Aire sous la courbe des pics observés, DNA binding protein H-NS (strain KP R16-1): 0.00 unité arbitraire
- Aire sous la courbe des pics observés, Protéine ribosomique 50S L29 (strain KP R16-1): 0 unité arbitraire
- Aire sous la courbe des pics observés, Protéine ribosomique 50S L31 (strain KP R16-1): 0 unité arbitraire
- Aire sous la courbe des pics observés, Protéine ribosomique 50S L34 (strain KP R16-1): 0 unité arbitraire
- Aire sous la courbe des pics observés, US9 (strain KP R16-1): 0 unité arbitraire
- Ratio par protéine 6290/Colistine (strain KP R16-1): 0.00
- Ratio par protéine 8308/Colistine (strain KP R16-1): 0.00
- Ratio par protéine CsbD/Colistine (strain KP R16-1): 0.00
- Ratio par protéine DNA BP H-NS/Colistine (strain KP R16-1): 0.00
- Ratio par protéine L29/Colistine (strain KP R16-1): 0.00
- Ratio par protéine L31/Colistine (strain KP R16-1): 0.00
- Ratio par protéine L34/Colistine (strain KP R16-1): 0.00
- Ratio par protéine US9/Colistine (strain KP R16-1): 0.00
- Somme des ratios (strain KP R16-1): 0.00
- Aire sous la courbe des pics observés, 6290 (strain KP R16-2): 0.00 unité arbitraire
- Aire sous la courbe des pics observés, 8308 (strain KP R16-2): 0 unité arbitraire
- Aire sous la courbe des pics observés, CsbD domain-containing protein (strain KP R16-2): 0 unité arbitraire
- Aire sous la courbe des pics observés, DNA binding protein H-NS (strain KP R16-2): 0.00 unité arbitraire
- Aire sous la courbe des pics observés, Protéine ribosomique 50S L29 (strain KP R16-2): 0 unité arbitraire
- Aire sous la courbe des pics observés, Protéine ribosomique 50S L31 (strain KP R16-2): 0 unité arbitraire
- Aire sous la courbe des pics observés, Protéine ribosomique 50S L34 (strain KP R16-2): 0 unité arbitraire
- Aire sous la courbe des pics observés, US9 (strain KP R16-2): 0 unité arbitraire
- Ratio par protéine 6290/Colistine (strain KP R16-2): 0.00
- Ratio par protéine 8308/Colistine (strain KP R16-2): 0.00
- Ratio par protéine CsbD/Colistine (strain KP R16-2): 0.00
- Ratio par protéine DNA BP H-NS/Colistine (strain KP R16-2): 0.00
- Ratio par protéine L29/Colistine (strain KP R16-2): 0.00
- Ratio par protéine L31/Colistine (strain KP R16-2): 0.00
- Ratio par protéine L34/Colistine (strain KP R16-2): 0.00
- Ratio par protéine US9/Colistine (strain KP R16-2): 0.00
- Somme des ratios (strain KP R16-2): 0.00
- Aire sous la courbe des pics observés, 6290 (strain KP S10-1): 837 unité arbitraire
- Aire sous la courbe des pics observés, 8308 (strain KP S10-1): 209 unité arbitraire
- Aire sous la courbe des pics observés, CsbD domain-containing protein (strain KP S10-1): 0 unité arbitraire
- Aire sous la courbe des pics observés, DNA binding protein H-NS (strain KP S10-1): 374 unité arbitraire
